# In US20090105270A1, “Kinase inhibition and anticancer therapy” (priority 2007, published 2009):
# Columns and labels:
# [1] = biological target: T1, Ron(h) (Homo sapiens, UniProt Q04912); assay: Upstate kinase activity inhibition assay Ron(h); assay type: biochemical; conditions: 40 min; read-out: percentage of enzyme activity that remains
# T1 construct: purchased Upstate (KinaseProfiler service)
# [2] = biological target: PRAK(h) (Homo sapiens, UniProt Q8IW41); assay: Upstate kinase activity inhibition assay PRAK(h); conditions: 40 min, read-out: percentage of enzyme activity that remains
# [3] = biological target: NLK (h) (Homo sapiens, UniProt Q9UBE8); assay: Upstate kinase activity inhibition assay NLK (h); conditions: 40 min, read-out: percentage of enzyme activity that remains
# [4] = biological target: Arg(h) (Homo sapiens, UniProt P42684); assay: Upstate kinase activity inhibition assay Arg(h); conditions: 40 min, read-out: percentage of enzyme activity that remains
# Arg(h), sequence (P42684 whole entry): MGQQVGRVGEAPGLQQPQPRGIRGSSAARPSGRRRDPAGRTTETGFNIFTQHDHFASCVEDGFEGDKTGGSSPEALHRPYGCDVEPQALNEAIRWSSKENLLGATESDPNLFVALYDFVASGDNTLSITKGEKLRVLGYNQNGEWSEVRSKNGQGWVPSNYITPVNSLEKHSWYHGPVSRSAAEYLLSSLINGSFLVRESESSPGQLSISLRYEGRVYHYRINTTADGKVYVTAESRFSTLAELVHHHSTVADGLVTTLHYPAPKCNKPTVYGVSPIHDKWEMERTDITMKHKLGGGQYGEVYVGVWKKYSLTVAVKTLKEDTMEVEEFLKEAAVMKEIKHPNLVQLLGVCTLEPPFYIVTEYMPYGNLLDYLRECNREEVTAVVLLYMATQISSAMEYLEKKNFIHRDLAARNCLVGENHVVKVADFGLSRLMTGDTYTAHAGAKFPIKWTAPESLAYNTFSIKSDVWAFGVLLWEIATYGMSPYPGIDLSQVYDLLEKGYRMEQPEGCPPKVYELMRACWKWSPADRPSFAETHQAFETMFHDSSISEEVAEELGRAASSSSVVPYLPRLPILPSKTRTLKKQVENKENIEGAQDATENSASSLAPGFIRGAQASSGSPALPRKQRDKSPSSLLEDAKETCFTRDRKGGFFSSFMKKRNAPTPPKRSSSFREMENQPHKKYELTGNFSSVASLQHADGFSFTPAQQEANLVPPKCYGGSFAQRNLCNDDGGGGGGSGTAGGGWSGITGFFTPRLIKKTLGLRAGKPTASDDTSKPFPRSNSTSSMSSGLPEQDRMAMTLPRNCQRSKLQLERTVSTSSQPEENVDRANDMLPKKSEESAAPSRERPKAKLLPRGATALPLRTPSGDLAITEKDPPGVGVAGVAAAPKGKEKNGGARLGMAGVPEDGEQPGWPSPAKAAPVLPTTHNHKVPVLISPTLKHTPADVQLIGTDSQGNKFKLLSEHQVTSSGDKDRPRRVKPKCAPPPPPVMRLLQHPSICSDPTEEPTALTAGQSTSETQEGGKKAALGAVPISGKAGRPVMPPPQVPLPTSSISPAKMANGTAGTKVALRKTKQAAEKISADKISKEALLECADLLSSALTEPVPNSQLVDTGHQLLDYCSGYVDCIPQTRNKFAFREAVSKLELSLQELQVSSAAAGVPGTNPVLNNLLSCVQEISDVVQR
# T1 sequence (Q04912 25-1400): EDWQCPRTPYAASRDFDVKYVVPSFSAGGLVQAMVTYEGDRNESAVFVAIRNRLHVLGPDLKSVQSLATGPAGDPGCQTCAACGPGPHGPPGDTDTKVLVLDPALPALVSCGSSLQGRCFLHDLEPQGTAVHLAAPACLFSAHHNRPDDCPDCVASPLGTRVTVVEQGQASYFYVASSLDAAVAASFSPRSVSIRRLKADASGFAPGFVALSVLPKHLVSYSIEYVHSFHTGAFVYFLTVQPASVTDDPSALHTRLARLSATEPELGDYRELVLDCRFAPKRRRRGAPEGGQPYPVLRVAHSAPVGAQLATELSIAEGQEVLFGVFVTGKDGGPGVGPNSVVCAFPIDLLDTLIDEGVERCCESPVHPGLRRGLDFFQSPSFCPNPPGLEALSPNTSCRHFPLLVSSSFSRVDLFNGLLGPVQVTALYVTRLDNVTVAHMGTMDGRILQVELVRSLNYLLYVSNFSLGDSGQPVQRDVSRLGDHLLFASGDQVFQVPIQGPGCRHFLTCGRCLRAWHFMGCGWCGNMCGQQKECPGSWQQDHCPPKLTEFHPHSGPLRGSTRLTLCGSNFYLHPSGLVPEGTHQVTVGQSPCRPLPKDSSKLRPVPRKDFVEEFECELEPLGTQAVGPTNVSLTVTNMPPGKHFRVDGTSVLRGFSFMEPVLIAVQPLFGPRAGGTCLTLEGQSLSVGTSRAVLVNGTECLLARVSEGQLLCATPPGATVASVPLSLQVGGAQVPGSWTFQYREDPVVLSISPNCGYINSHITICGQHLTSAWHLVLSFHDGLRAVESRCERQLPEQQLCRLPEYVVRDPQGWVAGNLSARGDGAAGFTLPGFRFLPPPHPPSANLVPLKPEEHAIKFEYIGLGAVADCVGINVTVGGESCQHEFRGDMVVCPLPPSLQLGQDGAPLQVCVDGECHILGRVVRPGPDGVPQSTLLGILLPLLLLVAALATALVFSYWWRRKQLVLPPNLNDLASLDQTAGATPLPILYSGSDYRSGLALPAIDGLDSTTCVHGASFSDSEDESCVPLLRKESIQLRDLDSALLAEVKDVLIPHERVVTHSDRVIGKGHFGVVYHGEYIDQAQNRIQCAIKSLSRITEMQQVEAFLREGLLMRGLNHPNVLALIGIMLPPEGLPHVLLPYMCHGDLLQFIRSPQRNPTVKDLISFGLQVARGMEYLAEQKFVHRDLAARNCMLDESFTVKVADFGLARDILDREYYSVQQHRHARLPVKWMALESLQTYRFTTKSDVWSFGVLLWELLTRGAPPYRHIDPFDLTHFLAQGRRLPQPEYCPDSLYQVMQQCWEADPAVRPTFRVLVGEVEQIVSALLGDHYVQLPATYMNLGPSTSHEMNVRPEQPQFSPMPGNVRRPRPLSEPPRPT
# PRAK(h), sequence (Q8IW41 whole entry): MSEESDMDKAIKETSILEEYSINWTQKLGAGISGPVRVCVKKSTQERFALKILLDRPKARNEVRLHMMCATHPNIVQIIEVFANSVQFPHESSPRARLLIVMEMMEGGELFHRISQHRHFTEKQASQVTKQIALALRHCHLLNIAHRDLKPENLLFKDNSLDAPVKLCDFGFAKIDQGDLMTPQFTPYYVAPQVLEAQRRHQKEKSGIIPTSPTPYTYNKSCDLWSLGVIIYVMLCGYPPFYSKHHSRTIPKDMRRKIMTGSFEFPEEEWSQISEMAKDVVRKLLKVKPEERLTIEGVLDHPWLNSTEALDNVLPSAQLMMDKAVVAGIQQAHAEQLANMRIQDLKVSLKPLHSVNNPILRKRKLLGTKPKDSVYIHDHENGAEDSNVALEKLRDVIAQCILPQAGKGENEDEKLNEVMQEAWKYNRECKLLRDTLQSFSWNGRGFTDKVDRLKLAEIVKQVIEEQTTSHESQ
# NLK (h), sequence (Q9UBE8 whole entry): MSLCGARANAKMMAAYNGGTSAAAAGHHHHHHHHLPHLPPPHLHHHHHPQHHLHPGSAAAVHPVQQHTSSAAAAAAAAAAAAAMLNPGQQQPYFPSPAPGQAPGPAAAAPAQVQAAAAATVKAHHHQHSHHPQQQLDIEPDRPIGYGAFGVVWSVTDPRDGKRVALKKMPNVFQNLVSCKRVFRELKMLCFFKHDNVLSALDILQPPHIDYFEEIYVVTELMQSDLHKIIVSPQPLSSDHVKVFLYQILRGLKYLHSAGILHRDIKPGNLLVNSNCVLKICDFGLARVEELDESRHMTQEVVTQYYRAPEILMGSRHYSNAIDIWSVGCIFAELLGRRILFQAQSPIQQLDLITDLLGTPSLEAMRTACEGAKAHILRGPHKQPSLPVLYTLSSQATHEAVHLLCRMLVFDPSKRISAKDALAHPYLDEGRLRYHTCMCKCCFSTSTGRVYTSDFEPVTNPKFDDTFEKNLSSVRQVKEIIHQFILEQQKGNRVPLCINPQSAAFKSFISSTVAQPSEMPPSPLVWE
compound,measurement,setting,value
"Cc1cc(Nc2cc(N3CCN(C)CC3)nc(Sc3ccc(NC(=O)C4CC4)cc3)n2)n[nH]1 [Compound E, Cyclopropane carboxylic acid {4-[4-(4-methyl-piperazin-1-yl)-6-(5-methyl-2H-pyrazol-3-ylamino)-pyrimidin-2-ylsulphanyl]-phenyl}-amide]",remaining activity at 0.2 µM,[1],95%
same,remaining activity at 4 µM,[1],48%
same,remaining activity at 0.2 µM,[2],114%
same,remaining activity at 4 µM,[2],109%
same,remaining activity at 0.2 µM,[3],105%
same,remaining activity at 4 µM,[3],99%
same,remaining activity at 0.2 µM,[4],8%
same,remaining activity at 4 µM,[4],-1%
